Data as given in patent publication US11370847B2, “Single domain antibodies directed against intracellular antigens” (Singh Biotechnology, LLC, priority 2014, dated 2022).
“And” between values parts separate entries of the source, which are not always exact repeats. Identical values can stand only once. Like-named read-outs stand apart in the source and are kept apart here.

Columns and labels:
MDA-MB 231 cells = test: Internalization of sdAb, anti-His staining, MDA-MB 231; assay type: cell-based; conditions: 18 hours after sdAb addition
Protocol: The next day, the chambers were rinsed with fresh media and STAT3 VHH13 (SEQ ID NO:3) sdAb (diluted 1:10 in media) or TNF-α VHH66 (SEQ ID NO:45) sdAb was added to the chamber. An anti-HIV-1 Reverse Transcriptase (RT) sdAb was used as a negative control.
The slides were incubated for 18 hours after sdAb addition. The chambers were briefly rinsed with media and fixed in ice-cold methanol for 5-10 min. The chambers were then dried and stained with a fluorescent anti-His tag antibody (1:200) (Novus Biologicals, Littleton, Colo.) for 45 min at room temperature. The slides were rinsed in PBS for 5 minutes and mounted.

MCF-7 xenograft = conditions: for Caliper Measurement W / Caliper Measurement L / Tumor Volume TV: individual animals; for Caliper Measurement W / Caliper Measurement L / Tumor Volume TV / Tumor Volume TV, group Mean: VHH13 1 mg/kg ip tid × 14
[1] = Group 2, 1 mg/kg ip tid × 14 first Day 2 doses

Substance: anti-STAT3 VHH13: anti-STAT3 single-domain antibody, SEQ ID NO:3; bacterially produced, referred to as SBT-100
- staining with fluorescent anti-His tag antibody (MDA-MB 231 cells): positive cytoplasmic staining
- time for the group to reach a tumor volume of 1000 mm^3 (MCF-7 xenograft; 1 mg/kg ip tid x 14, control group 25 days): 36 days
- Caliper Measurement W (MCF-7 xenograft; Day 1): 6 mm
- Caliper Measurement L (MCF-7 xenograft; Day 1, 1 mg/kg): 6 mm (2×) and 7 mm (2×)
- Tumor Volume TV (MCF-7 xenograft; Day 4 (Jul. 30, 2015), 1 mg/kg): 196 mm^3 and 126 mm^3 and 144 mm^3
- Caliper Measurement L (MCF-7 xenograft; Day 4, 1 mg/kg): 8 mm (2×) and 7 mm
- Caliper Measurement W (MCF-7 xenograft; Day 4, 1 mg/kg): 7 mm and 6 mm (2×)
- Caliper Measurement L (MCF-7 xenograft; Day 8, 1 mg/kg): 8 mm
- Caliper Measurement W (MCF-7 xenograft; Day 8, 1 mg/kg): 7 mm
- Caliper Measurement L (MCF-7 xenograft; Day 11, 1 mg/kg): 8 mm
- Caliper Measurement W (MCF-7 xenograft; Day 11, 1 mg/kg): 9 mm and 7 mm
- Tumor Volume TV, group Mean (MCF-7 xenograft; Day 15): 346.5 mm^3
- Caliper Measurement L (MCF-7 xenograft; Day 15, 1 mg/kg): 9 mm
- Caliper Measurement W (MCF-7 xenograft; Day 15, 1 mg/kg): 9 mm
- Tumor Volume TV (MCF-7 xenograft; Day 15, 1 mg/kg): 405 mm^3 and 288 mm^3
- Caliper Measurement L (MCF-7 xenograft; Day 18, 1 mg/kg): 9 mm
- Caliper Measurement W (MCF-7 xenograft; Day 18, 1 mg/kg): 9 mm
- Caliper Measurement L (MCF-7 xenograft; Day 22, 1 mg/kg): 11 mm
- Caliper Measurement W (MCF-7 xenograft; Day 22, 1 mg/kg): 9 mm
- Caliper Measurement L (MCF-7 xenograft; Day 25, 1 mg/kg): 12 mm
- Caliper Measurement W (MCF-7 xenograft; Day 25, 1 mg/kg): 12 mm and 9 mm
- Caliper Measurement L (MCF-7 xenograft; Day 29, 1 mg/kg): 13 mm
- Caliper Measurement W (MCF-7 xenograft; Day 29, 1 mg/kg): 13 mm
- Tumor Volume TV, group Mean (MCF-7 xenograft; Day 32): 500 mm^3
- Tumor Volume TV (MCF-7 xenograft; Day 32): 500 mm^3
- Caliper Measurement L (MCF-7 xenograft; Day 36): 12 mm
- Caliper Measurement W (MCF-7 xenograft; Day 36): 12 mm
- Caliper Measurement L (MCF-7 xenograft; Day 39): 13 mm
- Caliper Measurement W (MCF-7 xenograft; Day 39): 13 mm
- % TGD (MCF-7 xenograft; [1]): 42%
- T-C (MCF-7 xenograft; [1]): 9.7
